According to patent US12043622B2, “Crystal form of compound for inhibiting the activity of CDK4/6 and use thereof” (Betta Pharmaceuticals Co., Ltd., priority 2019, dated 2024):
Where two headings read alike, the source gives them in different places. Blank lines part the entries; values can stand above or below the compound they belong to.

How the values were obtained:
[1] = Stability of the crystal form, checked by XRD; format: physicochemical
Description: In one embodiment of the invention, XRD analysis of the small sample (batch number: 1072P04-A14S01) was performed by SoliPharmausing Bruker D8 Advance Diffractometer.

[2] = Solubility in water at room temperature; format: physicochemical; details: for Classification of solubility: classes of the Chinese Pharmacopoeia (2015); for solubility: thermodynamic from solid
CDK2/cyclin E = CDK2/cyclin E (Homo sapiens, UniProt P24941); assay: CDK subtype selectivity, 33P-ATP radiometric kinase assay; format: biochemical
Source text: (§1) The mechanism of this method is shown in formula (IV).
(§2) Data was processed with Prism4 Software (GraphPad), and the curve fitting formula was: Y=Bottom+(Top−Bottom)/(1+10^((Log IC50−X)*HillSlope)); wherein, Y is percent inhibition (%); X is logarithm of concentration of the inhibitor.

CDK9/cyclin T1 = CDK9/cyclin T1 (Homo sapiens, UniProt P50750); assay: as above; format: biochemical
Chain of CDK9/cyclin T1 (P50750 whole entry, species assumed): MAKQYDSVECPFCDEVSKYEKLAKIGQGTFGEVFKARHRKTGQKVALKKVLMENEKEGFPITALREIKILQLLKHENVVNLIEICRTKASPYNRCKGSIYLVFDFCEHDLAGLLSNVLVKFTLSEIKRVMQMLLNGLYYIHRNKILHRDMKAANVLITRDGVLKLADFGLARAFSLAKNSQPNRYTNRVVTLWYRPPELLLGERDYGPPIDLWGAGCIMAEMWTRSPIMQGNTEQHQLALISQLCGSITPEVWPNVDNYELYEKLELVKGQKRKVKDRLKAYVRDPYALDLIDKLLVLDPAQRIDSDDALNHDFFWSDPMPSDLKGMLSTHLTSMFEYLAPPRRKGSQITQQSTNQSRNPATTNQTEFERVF
Chain of CDK9/cyclin T1 (O60563 whole entry partner, species assumed): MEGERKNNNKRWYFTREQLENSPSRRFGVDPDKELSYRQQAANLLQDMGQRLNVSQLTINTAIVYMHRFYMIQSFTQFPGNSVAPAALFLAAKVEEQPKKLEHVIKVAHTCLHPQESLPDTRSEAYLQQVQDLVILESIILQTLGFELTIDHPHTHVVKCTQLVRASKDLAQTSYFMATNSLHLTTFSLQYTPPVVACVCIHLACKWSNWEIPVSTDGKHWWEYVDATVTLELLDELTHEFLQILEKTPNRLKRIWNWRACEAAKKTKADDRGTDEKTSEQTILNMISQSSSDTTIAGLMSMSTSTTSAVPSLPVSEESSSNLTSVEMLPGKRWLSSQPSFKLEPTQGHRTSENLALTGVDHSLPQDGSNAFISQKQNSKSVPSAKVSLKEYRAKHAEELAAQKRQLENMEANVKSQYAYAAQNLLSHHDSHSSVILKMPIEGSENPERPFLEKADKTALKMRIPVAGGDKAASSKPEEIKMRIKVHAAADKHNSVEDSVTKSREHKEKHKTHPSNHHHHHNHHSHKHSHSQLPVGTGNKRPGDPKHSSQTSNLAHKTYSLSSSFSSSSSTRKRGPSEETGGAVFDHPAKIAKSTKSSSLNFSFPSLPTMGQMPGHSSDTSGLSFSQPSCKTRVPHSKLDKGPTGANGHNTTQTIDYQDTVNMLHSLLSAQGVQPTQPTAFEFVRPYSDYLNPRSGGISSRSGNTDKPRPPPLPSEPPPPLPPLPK
Source text: as §1, §2

[3] = Dynamic moisture sorption (DVS); format: physicochemical
Source text: The instruments and methods of Dynamic moisture adsorption in the present invention was shown in table 7, the results of DVS was shown in table 8.

[4] = Solid form conversion of amorphous and metastable forms; format: physicochemical; details: for Solid form stability under moisture: water/moisture, room temperature
[5] = Crystal form long-term stability, impurities by HPLC; format: physicochemical; details: for Content > 0.1% Number of unknown impurities (s) / Maximum single impurity content (%) / Total impurity content (%): 25° C.±2° C., RH 60%±10%, HPLC
[6] = Pharmacokinetic experiment in SD rats, plasma by LC-MS/MS; format: in vivo; details: both sexes, Sprague-Dawley (SD), rat, PO, 30 mg/kg
Description: A total of 12 SD rats were divided into two groups, 6 in each group, each half of male and female.
In the above plasma sample, protein was precipitated by acetonitrile, the supernatant was diluted 3 times with water, and 5 μL was detected by LC-MS/MS, the results of experiment was shown in table 10: […]

XRD pattern after storage (crystal form stability) ([1]; 25° C., 60% RH, 10 days): changed
XRD pattern after storage (crystal form stability) ([1]; 40° C., 75% RH, 10 days): changed
XRD pattern after storage (crystal form stability) ([1]; dried at 80° C., 24 h, listed as crystal form D of the compound III): unchanged
Classification of solubility [2]: soluble
solubility [2]: 50 to 100 mg/mL
SMILES: CCN1CCN(Cc2ccc(Nc3ncc(F)c(-c4cc(F)c5nc6n(c5c4)[C@H](C)CCC6)n3)nc2)CC1.CS(=O)(=O)O [crystal form D of compound III]

XRD pattern after storage (crystal form stability) ([1]; 25° C., 60% RH, 10 days): changed
XRD pattern after storage (crystal form stability) ([1]; 40° C., 75% RH, 10 days): changed
XRD pattern after storage (crystal form stability) ([1]; dried at 80° C., 24 h, listed as crystal form F the compound III): changed
Weight change in the range of 0% RH-80% RH [3]: 16.6%
SMILES: CCN1CCN(Cc2ccc(Nc3ncc(F)c(-c4cc(F)c5nc6n(c5c4)[C@H](C)CCC6)n3)nc2)CC1.CS(=O)(=O)O [crystal form F of compound III]

Second part, the compound before the results:

SMILES: CCN1CCN(Cc2ccc(Nc3ncc(F)c(-c4cc(F)c5nc6n(c5c4)[C@H](C)CCC6)n3)nc2)CC1 [compound 2b]
IC50 (CDK2/cyclin E; read-out: IC50 CDK2/cyclin E): 441 nM
IC50 (CDK9/cyclin T1; read-out: IC50 CDK9/cyclin T1): 649 nM

SMILES: CCN1CCN(Cc2ccc(Nc3ncc(F)c(-c4cc(F)c5nc6n(c5c4)[C@H](C)CCC6)n3)nc2)CC1.O=C(O)C(O)C(O)C(=O)O [amorphous form of compound II]
Solid form stability under moisture [4]: readily converted to the crystal form B of compound II
Solid form stability under moisture ([4]; listed as amorphous form of Compound II): readily forms Form B of Compound II

SMILES: CCN1CCN(Cc2ccc(Nc3ncc(F)c(-c4cc(F)c5nc6n(c5c4)[C@H](C)CCC6)n3)nc2)CC1.CS(=O)(=O)O [amorphous form of compound III]
Solid form stability on scale-up ([4]; scaled up to 50 mg): unstable

SMILES: CCN1CCN(Cc2ccc(Nc3ncc(F)c(-c4cc(F)c5nc6n(c5c4)[C@H](C)CCC6)n3)nc2)CC1 [compound I, (R)—N-(5-((4-ethylpiperazin-1-yl)methyl)pyridin-2-yl)-5-fluoro-4-(6-fluoro-1-methyl-1,2,3,4-tetrahydrobenzo[4,5]imidazo[1,2-a]pyridin-8-yl)pyrimidin-2-amine]
Content > 0.1% Number of unknown impurities (s) ([5]; 0 month): 0
Maximum single impurity content (%) ([5]; 0 month): 0.04%
Total impurity content (%) ([5]; 0 month): 0.11%
Content > 0.1% Number of unknown impurities (s) ([5]; 3 month): 0
Maximum single impurity content (%) ([5]; 3 month): 0.10%
Total impurity content (%) ([5]; 3 month): 0.17%
Maximum single impurity content (%) ([5]; 18 month): 0.22%
Total impurity content (%) ([5]; 18 month): 1.0%
Classification of solubility [2]: Very little soluble
solubility [2]: < 1 mg/mL
AUC(0-t) [6]: 27700 ng·h/mL
IC50 (CDK2/cyclin E; stated jointly for CDK1/2/7/9, read-out: IC50 for inhibiting CDK2): > 400 nM
IC50 (CDK9/cyclin T1; stated jointly for CDK1/2/7/9, read-out: IC50 for inhibiting CDK9): > 400 nM

SMILES: CCN1CCN(Cc2ccc(Nc3ncc(F)c(-c4cc(F)c5nc6n(c5c4)[C@H](C)CCC6)n3)nc2)CC1.O=C(O)C(O)C(O)C(=O)O [crystal form A of compound II]
XRD pattern after storage (crystal form stability) ([1]; 25° C., 60% RH, 10 days): not changed
XRD pattern after storage (crystal form stability) ([1]; 25° C., 60% RH, 10 days, listed as crystal form A of the compound II): unchanged
XRD pattern after storage (crystal form stability) ([1]; 40° C., 75% RH, 10 days): not changed
XRD pattern after storage (crystal form stability) ([1]; 40° C., 75% RH, 10 days, listed as crystal form A of the compound II): unchanged
XRD pattern after storage (crystal form stability) ([1]; dried at 80° C., 24 h): not changed
XRD pattern after storage (crystal form stability) ([1]; dried at 80° C., 24 h, listed as crystal form A of the compound II): unchanged
Content > 0.1% Number of unknown impurities (s) ([5]; 0 month): 0
Maximum single impurity content (%) ([5]; 0 month): 0.05%
Total impurity content (%) ([5]; 0 month): 0.10%
Content > 0.1% Number of unknown impurities (s) ([5]; 3 month): 0
Maximum single impurity content (%) ([5]; 3 month): 0.05%
Total impurity content (%) ([5]; 3 month): 0.13%
Content > 0.1% Number of unknown impurities (s) ([5]; 18 month): 0
Maximum single impurity content (%) ([5]; 18 month): 0.06%
Total impurity content (%) ([5]; 18 month): 0.21%
Amount of the impurities produced ([5]; after 18 months): less than 0.1%
Classification of solubility [2]: Readily-soluble
solubility [2]: 100 to 200 mg/mL
AUC(0-t) [6]: 47000 ng·h/mL

SMILES: CCN1CCN(Cc2ccc(Nc3ncc(F)c(-c4cc(F)c5nc6n(c5c4)[C@H](C)CCC6)n3)nc2)CC1.O=C(O)C(O)C(O)C(=O)O [crystal form B of compound II]
Weight change in the range of 0% RH-80% RH [3]: 5.5%
Solid form stability on heating ([4]; heated to 180° C.): could be converted to crystal form A
